# Patent publication US5696164A, “Antifungal treatment of nails” (Johnson & Johnson Consumer Products, Inc., priority 1994, dated 1997)
# Where a name gives a salt, the structure may show the parent alone.
# Columns and labels:
# [1] = Nail swelling-pH profile (urea/propylene carbonate/propylene glycol/N-acetyl-l-cysteine/water); parameters: species or system human; conditions: FIG. 8; pH 3.2-7.0, 32 °C
# Experimental: (§1) The experimental procedure was the following: Clean human nail clippings were equilibrated to a constant weight by placing them in a desiccator over saturated CaCl2.6H2 O solution (29% relative humidity at room temperature) for at least 48 hours before use. Approximately 30 mg of human nail clippings were weighed into a glass vial. The exact initial weight was recorded. Four grams of the test formulation (pre-warmed to 32° C.) was added into the vial and maintained at 32° C. under stirring in a Heating/Stirring Module (Reacti-Therm III, Pierce). The changes in nail weights were monitored at predetermined intervals over 48 hours. At the end of the swelling experiment, the nail sample was rinsed with a mixture of N,N-dimethylformamide and methanol (1:1) to remove surface-bound drug. The nail sample was then digested, and the drug concentration in nail was determined by high pressure liquid chromatography method as described by Badcock and Davies, Assay of itraconazole in nail clippings by reversed phase, high performance liquid chromatography, Ann. Clin. Biochem, 27 (1990) 506-508.
# It should be noted that, unlike the itraconazole formulations discussed above, which were tested at pH 3, the pH value of the miconazole nitrate formulation was set at pH 9. […] This was confirmed by the swelling-pH profile shown in FIG. 8, using the following formulation: […]
# [2] = calcium thioglycolate added directly into ointment; cited from earlier work
# dermatophites = conditions: "as low as"; cited from earlier work
# yeasts = conditions: "as low as"; cited from earlier work
# [3] = as the formulation pH increases; cited from earlier work
# [4] = after nail avulsion; cited from earlier work
# [5] = Nail swelling of human nail clippings in itraconazole formulations; conditions: FIG. 3a, 32 °C, 48 h
# Experimental: The experimental procedure was the following: Clean human nail clippings were equilibrated to a constant weight by placing them in a desiccator over saturated CaCl2.6H2 O solution (29% relative humidity at room temperature) for at least 48 hours before use. Approximately 30 mg of human nail clippings were weighed into a glass vial. The exact initial weight was recorded. Four grams of the test formulation (pre-warmed to 32° C.) was added into the vial and maintained at 32° C. under stirring in a Heating/Stirring Module (Reacti-Therm III, Pierce). The changes in nail weights were monitored at predetermined intervals over 48 hours. […]
# The nail swelling was expressed by the percentage of the initial nail weight (i.e., 100% of the initial nail weight means no swelling, and 200% means a nail swelling doubling the original weight, etc). An enhancement factor is used to show the increase in nail swelling due to the presence of nail penetration enhancer in comparison to the control, which were calculated according to the formula: enhancement factor=(% weight gain of the test nail sample)/(% weight gain of control nail sample, i.e., no enhancer & urea in the formulation). […] The drug concentration in nail was calculated by dividing the amount of the drug in nail (mg) by the weight of the initial nail clipping (i.e., dry nail weight in gram). […]
# [6] = Nail swelling in miconazole nitrate cream formulation; parameters: species or system human; conditions: FIG. 7; 1% miconazole nitrate, 20% urea, 10% N-acetyl-l-cysteine cream, pH 9.0
# Experimental: as §1
# (§2) A nail swelling and drug partitioning experiment was also conducted for miconazole nitrate using procedures analogous to those described above. […]
# [7] = Miconazole nitrate partitioning into nail; type: in vitro ADME, human; conditions: FIG. 7; 1% miconazole nitrate, 20% urea, 10% N-acetyl-l-cysteine cream, pH 9.0
# Experimental: as §1, §2
# [8] = Effect of urea on nail swelling/hydration in aqueous urea solutions; parameters: species or system human; conditions: pH 4.5
# Experimental: as §1
# The effect of urea on nail swelling was investigated, using aqueous urea solutions of various concentrations at pH 4.5. […] For this reason, it is believed that the use of urea alone will not cause significant enhancement of drug permeation through the nail.
# [9] = prior to topical treatment of onychomycosis; cited from earlier work
# [10] = rats; skin pretreated with aqueous calcium thioglycolate solution; cited from earlier work
compound,measurement,setting,value
"CC(=O)N[C@@H](CS)C(=O)O [N-acetyl-l-cysteine, N-Acetyl-l-cysteine]",working pH range,[1],wide working pH range
"COc1ccc2c(c1)c(CC(=O)O)c(C)n2C(=O)c1ccc(Cl)cc1 [calcium salt of indomethacin, indomethacin]",drug absorption,[2],dramatically decreased the absorption
CCC(C)n1ncn(-c2ccc(N3CCN(c4ccc(OCC5COC(Cn6cncn6)(c6ccc(Cl)cc6Cl)O5)cc4)CC3)cc2)c1=O (centres unmarked) [itraconazole],minimal inhibitory concentration (MIC),dermatophites,0.1 µg/mL
same,minimal inhibitory concentration (MIC),yeasts,0.1 µg/mL
same,solubility versus formulation pH,[3],decreases
CC(=O)N1CCN(c2ccc(OCC3COC(Cn4ccnc4)(c4ccc(Cl)cc4Cl)O3)cc2)CC1 (centres unmarked) [ketoconazole],efficacy in topically treating onychomycosis,[4],effective
N[C@@H](CS)C(=O)O [l-cysteine],rank of nail swelling enhancement,[5],highest nail swelling enhancement
Clc1ccc(COC(Cn2ccnc2)c2ccc(Cl)cc2Cl)c(Cl)c1 (centres unmarked) [miconazole nitrate],nail swelling,[6],significant nail swelling
same,miconazole partitioning into the nail,[7],substantial miconazole partitioning into the nail
Clc1ccc(COC(Cn2ccnc2)c2ccc(Cl)cc2Cl)c(Cl)c1 (centres unmarked) [miconazole],efficacy in topically treating onychomycosis,[4],effective
NC(N)=O [urea],nail hydration,[8]; 20% aqueous urea,30%
same,nail hydration,[8]; 40% aqueous urea,50%
same,results of nonsurgical avulsion of nail dystrophies,[9],satisfactory results
insulin,transdermal drug permeation,[10],enhanced transdermal drug permeation
